Publication PMC9519552, “Activation of the human insulin receptor by non-insulin-related peptides” (Nature Communications, 2022)
Like-named read-outs stand apart in the source and are kept apart here. Positions of bridges follow the written chain, without caps; N, C: chain ends. Residues, ends and D or L forms follow the SMILES beside them.

What was measured:
human IR-A (holoIR-A) = target: T1, human IR-A (holoIR-A) (Homo sapiens, UniProt P06213); assay: holoIR-A competitive radioligand binding assay (scintillation proximity assay); settings: for Ki: IM172N22(-) mutant peptide set; for reduction in ki for hIR-A on substitution: relative to control peptide IM172N22 devoid of N-terminal phenylacetylation
T1 construct: expressed in transfected cells; host or cells: HEK293 (ATCC #CRL-1573), stably transfected; membrane preparation
Procedure: Cellular membranes were prepared from human embryonic kidney (HEK293; ATCC #CRL-1573) cells stably transfected with cDNA corresponding to human IR-A (holoIR-A) plus a C-terminal C9 tag ([…]) inserted within a pcDNA3.1 plasmid (Invitrogen), with positive clones selected with 800 μg mL^−1 neomycin and confirmed by Western Blot. Frozen cell pellets were thawed in ice-cold homogenization/resuspension buffer (50 mM Tris-HCl, pH 7.5) containing one cOmplete® protease inhibitor tablet with EDTA (Roche Diagnostics) per 50 mL buffer. Cells were homogenized with an overhead motor-driven Teflon-glass homogenizer using 15–20 strokes, followed by centrifugation at 1100 × g for 10 min at 4 °C. The supernatant was saved on ice, pellets were homogenized as before, and centrifuged at 1100 × g for 10 min at 4 °C. Both supernatants were combined and subsequently centrifuged at 35,000 × g for 60 min at 4 °C. The pellet was resuspended in buffer (4 to 5 mL g^−1 of starting cell paste) containing protease inhibitors and quick frozen in liquid nitrogen prior to storage at −80 °C. Protein concentration was determined using a BCA kit (Thermo Scientific) with bovine serum albumin (BSA) as standard.
The assays were performed with a scintillation proximity assay (SPA) method using polyvinyltoluene (PVT) wheat germ agglutinin-coupled SPA beads (Perkin Elmer). Assay buffer containing 50 mM Tris-HCl (pH 7.5), 150 mM NaCl, 0.1% w/v fatty-acid free BSA was used for all compound testing and reagent preparation. Ten-point concentration response curves with three-fold serial dilutions of test samples or controls were prepared in the assay buffer. […] Plates were sealed and shaken for 1 min on a plate shaker. Following a 10-h incubation and bead settling period at room temperature, radioactivity was determined using a MicroBeta Trilux scintillation counter (Perkin Elmer) and expressed as counts per minute (CPM). […] Samples were tested in three independent assay runs on three different days.
All test sample concentration responses were normalized to the control response and calculated as a percent of the maximal response after correcting for nonspecific binding as shown below: %Specific Inhibition=100%−[(CPM−MIN)/(MAX−MIN)×100%]
Percent specific binding (y-axis) was plotted vs log concentration of compound (x-axis) using Prism Version 9.3.1 (GraphPad Software). Individual measurements are provided as Source Data.

[1] = target: T2, human holoIR-A over-expressed in HEK293 cells (Homo sapiens, UniProt P06213); assay: Inhibition of hIR phosphorylation by peptides, co-incubated with BHI at its EC50 (ELISA); format: cell-based; settings: for hIRA Phosph IC50 Run 1 / hIRA Phosph IC50 Run 2 / hIRA Phosph IC50 Run 3: inhibition of insulin-stimulated phosphorylation; for hIRA Phosph IC50 Run 1: BHI at its EC50, run 1; for hIRA Phosph IC50 Run 2: BHI at its EC50, run 2; for hIRA Phosph IC50 Run 3: BHI at its EC50, run 3; for IC50: read-out: hIRA Phosph IC50 Mean
T2 construct: expressed in transfected cells; host or cells: HEK293, stably transfected
Procedure: Phosphorylation was quantified using an ELISA technique. Ninety-six well, flat-bottom microplates (Greiner Bio-One) were pre-coated with 2 µg mL^−1 anti-C9 monoclonal antibody (Rho 1D4; University of British Columbia)[27] in 20 mM sodium carbonate, pH 9.6, at 4 °C for overnight prior to the assay. On the assay day, plates were washed 3× with 0.1% Tween in 50 mM Tris Buffer Saline, pH 7.5 (TBST), and then blocked for greater than 1 h at room temperature (RT) with 1% BSA (Sigma) in TBST.
Stably transfected HEK293 cells over-expressing human holoIR-A containing a C-terminal C9 epitope tag ([…]), were plated at 6 × 10^4 cells per well serum-starved using 0.1% BSA in DMEM (Gibco) for overnight at standard tissue culture condition. […] After a 15-min incubation in lysis buffer at 4 °C, the lysate was transferred to anti-C9 antibody coated capture plate (Rho 1D4; University of British Columbia)[27]. […] After a 1 h incubation at room temperature, the secondary antibody was removed by washing 3× with TBST. Signal detection occurred with the addition of TMB, an HRP substrate (Pierce). After 5–10 min, the reaction was stopped by adding an equal volume of 2 M H2SO4, and the absorbance readings at 450 nm (A450) were recorded using a Envision plate reader (PerkinElmer). Samples were tested in three independent assay runs on three different days.
Percent specific response (y-axis) was plotted versus the log concentration of compound (x-axis) using Prism Version 9.3.1 (GraphPad Software). Individual measurements are provided as Source Data.

[2] = mean of 3 runs, read-out: hIRA Binding Ki Mean
[3] = run 1, read-out: hIRA Binding Ki Run 1
[4] = run 2, read-out: hIRA Binding Ki Run 2
[5] = run 3, read-out: hIRA Binding Ki Run 3

T1 sequence (P06213 28-1370 isoform P06213-2 limits assumed): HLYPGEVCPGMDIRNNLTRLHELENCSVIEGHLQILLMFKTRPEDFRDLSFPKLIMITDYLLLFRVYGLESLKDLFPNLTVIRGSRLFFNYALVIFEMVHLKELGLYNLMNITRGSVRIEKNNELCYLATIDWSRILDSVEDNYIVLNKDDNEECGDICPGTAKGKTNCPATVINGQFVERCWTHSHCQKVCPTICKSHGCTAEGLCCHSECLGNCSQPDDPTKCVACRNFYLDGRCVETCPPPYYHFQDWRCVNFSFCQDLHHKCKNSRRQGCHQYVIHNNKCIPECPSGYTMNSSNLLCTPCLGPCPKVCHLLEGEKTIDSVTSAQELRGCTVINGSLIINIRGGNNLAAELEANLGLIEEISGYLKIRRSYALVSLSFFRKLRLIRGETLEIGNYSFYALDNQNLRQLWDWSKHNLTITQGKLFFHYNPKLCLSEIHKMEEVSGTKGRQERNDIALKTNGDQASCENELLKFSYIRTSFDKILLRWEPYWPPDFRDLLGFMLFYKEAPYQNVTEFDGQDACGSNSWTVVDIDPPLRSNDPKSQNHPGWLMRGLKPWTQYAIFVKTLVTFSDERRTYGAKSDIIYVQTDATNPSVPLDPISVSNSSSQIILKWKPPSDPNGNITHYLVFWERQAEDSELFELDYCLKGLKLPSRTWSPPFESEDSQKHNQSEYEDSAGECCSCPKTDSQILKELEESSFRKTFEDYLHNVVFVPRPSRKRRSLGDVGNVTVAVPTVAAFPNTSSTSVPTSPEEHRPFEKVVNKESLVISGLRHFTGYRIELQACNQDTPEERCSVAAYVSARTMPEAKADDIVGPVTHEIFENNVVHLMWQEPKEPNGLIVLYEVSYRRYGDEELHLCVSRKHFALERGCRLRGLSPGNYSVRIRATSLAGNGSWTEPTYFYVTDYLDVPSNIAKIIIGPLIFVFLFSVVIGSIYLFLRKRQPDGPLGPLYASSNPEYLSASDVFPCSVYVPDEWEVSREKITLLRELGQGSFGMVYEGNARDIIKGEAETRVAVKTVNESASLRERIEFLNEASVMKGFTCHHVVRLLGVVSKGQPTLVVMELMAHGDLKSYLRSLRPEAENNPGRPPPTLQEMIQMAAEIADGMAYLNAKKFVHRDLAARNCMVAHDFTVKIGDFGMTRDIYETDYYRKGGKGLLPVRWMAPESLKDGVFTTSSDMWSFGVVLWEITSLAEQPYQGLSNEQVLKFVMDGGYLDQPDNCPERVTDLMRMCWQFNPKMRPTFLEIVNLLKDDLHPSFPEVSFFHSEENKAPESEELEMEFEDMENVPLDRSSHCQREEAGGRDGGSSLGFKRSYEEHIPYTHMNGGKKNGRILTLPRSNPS
T1 sequence (P06213 763-1382 partner limits assumed): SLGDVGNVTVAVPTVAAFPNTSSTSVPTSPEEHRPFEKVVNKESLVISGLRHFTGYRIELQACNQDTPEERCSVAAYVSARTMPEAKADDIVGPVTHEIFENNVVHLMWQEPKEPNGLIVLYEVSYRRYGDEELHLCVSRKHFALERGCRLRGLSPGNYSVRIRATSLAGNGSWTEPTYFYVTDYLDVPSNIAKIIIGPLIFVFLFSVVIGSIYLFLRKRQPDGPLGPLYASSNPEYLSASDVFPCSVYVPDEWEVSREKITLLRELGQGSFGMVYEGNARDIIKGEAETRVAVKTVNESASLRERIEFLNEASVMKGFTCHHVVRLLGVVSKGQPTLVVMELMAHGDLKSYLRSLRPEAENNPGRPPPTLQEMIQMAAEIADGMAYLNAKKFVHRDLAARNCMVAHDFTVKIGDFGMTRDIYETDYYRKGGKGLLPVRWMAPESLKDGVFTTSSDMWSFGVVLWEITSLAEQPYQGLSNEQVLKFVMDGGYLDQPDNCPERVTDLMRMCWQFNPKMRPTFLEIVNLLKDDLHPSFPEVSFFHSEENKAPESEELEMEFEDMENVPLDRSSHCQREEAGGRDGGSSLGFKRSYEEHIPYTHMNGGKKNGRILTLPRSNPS
T2 sequence (P06213 28-1370 isoform P06213-2 limits assumed): as the sequence (P06213 28-1370 isoform P06213-2 limits assumed) above
T2 sequence (P06213 763-1382 partner limits assumed): as the sequence (P06213 763-1382 partner limits assumed) above

Compound	Ki (human IR-A (holoIR-A); [2])	Ki (human IR-A (holoIR-A); [3])	Ki (human IR-A (holoIR-A); [4])	Ki (human IR-A (holoIR-A); [5])	hIRA Phosph IC50 Run 1 [1]	hIRA Phosph IC50 Run 2 [1]	hIRA Phosph IC50 Run 3 [1]	IC50 [1]	reduction in ki for hIR-A on substitution (human IR-A (holoIR-A))	binding of the mutant peptide to hIR-A (in words) (human IR-A (holoIR-A); alanine substitution in IM172N22(-))
CC(=O)N[C@@H](CO)C(=O)N[C@@H](CC(C)C)C(=O)N[C@@H](CCC(=O)O)C(=O)N[C@@H](CCC(=O)O)C(=O)N[C@@H](CCC(=O)O)C(=O)N[C@@H](Cc1c[nH]c2ccccc12)C(=O)N[C@@H](C)C(=O)N[C@@H](CCC(N)=O)C(=O)N[C@@H](C)C(=O)N[C@@H](CCC(=O)O)C(=O)N[C@H]1CSSC[C@@H](C(=O)N2CCC[C@H]2C(=O)N2CCC[C@H]2C(=O)N[C@@H](CO)C(=O)N[C@@H](CCC(=O)O)C(=O)N[C@@H](CO)C(N)=O)NC(=O)[C@H](CCCNC(=N)N)NC(=O)CNC(=O)[C@H](Cc2ccc(O)cc2)NC(=O)[C@H](C(C)C)NC(=O)[C@H](CCC(=O)O)NC1=O [Peptide I9A] (Ac-SLEEEWAQAECEVYGRCPPSES-NH2; disulfide 11-17)	952 nM	952 nM	835 nM	1068 nM	4745 nM	4291 nM	4550 nM	4530 nM	–	–
CC[C@H](C)[C@H](NC(=O)[C@H](CCC(N)=O)NC(=O)[C@H](C)NC(=O)[C@H](Cc1c[nH]c2ccccc12)NC(=O)[C@H](CCC(=O)O)NC(=O)[C@H](CCC(=O)O)NC(=O)[C@H](CCC(=O)O)NC(=O)[C@H](CC(C)C)NC(=O)[C@H](CO)NC(C)=O)C(=O)N[C@@H](CCC(=O)O)C(=O)N[C@H]1CSSC[C@@H](C(=O)N2CCC[C@H]2C(=O)N2CCC[C@H]2C(=O)N[C@@H](CO)C(=O)N[C@@H](CCC(=O)O)C(=O)N[C@@H](CO)C(N)=O)NC(=O)[C@H](CCC(=O)O)NC(=O)CNC(=O)[C@H](Cc2ccc(O)cc2)NC(=O)[C@H](C(C)C)NC(=O)[C@H](CCC(=O)O)NC1=O [Peptide R16E] (Ac-SLEEEWAQIECEVYGECPPSES-NH2; disulfide 11-17)	167 nM	145 nM	184 nM	172 nM	1117 nM	1161 nM	1465 nM	1250 nM	–	–
CC[C@H](C)[C@H](NC(=O)[C@H](CCC(N)=O)NC(=O)[C@H](C)NC(=O)[C@H](Cc1c[nH]c2ccccc12)NC(=O)[C@H](CCC(=O)O)NC(=O)[C@H](CCC(=O)O)NC(=O)[C@H](CCC(=O)O)NC(=O)[C@H](CC(C)C)NC(=O)[C@H](CO)NC(C)=O)C(=O)N[C@@H](CCC(=O)O)C(=O)N[C@H]1CSSC[C@@H](C(=O)N2CCC[C@H]2C(=O)N2CCC[C@H]2C(=O)N[C@@H](C)C(=O)N[C@@H](CCC(=O)O)C(=O)N[C@@H](CO)C(N)=O)NC(=O)[C@H](CCCNC(=N)N)NC(=O)CNC(=O)[C@H](Cc2ccc(O)cc2)NC(=O)[C@H](C(C)C)NC(=O)[C@H](CCC(=O)O)NC1=O [Peptide S20A] (Ac-SLEEEWAQIECEVYGRCPPAES-NH2; disulfide 11-17)	5.4 nM	4.72 nM	5.70 nM	5.77 nM	53 nM	40 nM	53 nM	48.5 nM	lower than 5 fold	–
CC[C@H](C)[C@H](NC(=O)[C@H](C)NC(=O)[C@H](C)NC(=O)[C@H](Cc1c[nH]c2ccccc12)NC(=O)[C@H](CCC(=O)O)NC(=O)[C@H](CCC(=O)O)NC(=O)[C@H](CCC(=O)O)NC(=O)[C@H](CC(C)C)NC(=O)[C@H](CO)NC(C)=O)C(=O)N[C@@H](CCC(=O)O)C(=O)N[C@H]1CSSC[C@@H](C(=O)N2CCC[C@H]2C(=O)N2CCC[C@H]2C(=O)N[C@@H](CO)C(=O)N[C@@H](CCC(=O)O)C(=O)N[C@@H](CO)C(N)=O)NC(=O)[C@H](CCCNC(=N)N)NC(=O)CNC(=O)[C@H](Cc2ccc(O)cc2)NC(=O)[C@H](C(C)C)NC(=O)[C@H](CCC(=O)O)NC1=O [Peptide Q8A] (Ac-SLEEEWAAIECEVYGRCPPSES-NH2; disulfide 11-17)	6.05 nM	5.17 nM	6.67 nM	6.31 nM	84 nM	92 nM	99 nM	91.9 nM	lower than 5 fold	–

Next, values leading:

Ki (human IR-A (holoIR-A); [2])	Ki (human IR-A (holoIR-A); [3])	Ki (human IR-A (holoIR-A); [4])	Ki (human IR-A (holoIR-A); [5])	hIRA Phosph IC50 Run 1 [1]	hIRA Phosph IC50 Run 2 [1]	hIRA Phosph IC50 Run 3 [1]	IC50 [1]	reduction in ki for hIR-A on substitution (human IR-A (holoIR-A))	binding of the mutant peptide to hIR-A (in words) (human IR-A (holoIR-A); alanine substitution in IM172N22(-))	Compound
16.2 nM	14.6 nM	16.1 nM	17.8 nM	78 nM	103 nM	88 nM	89.8 nM	lower than 5 fold	–	CC[C@H](C)[C@H](NC(=O)[C@H](CCC(N)=O)NC(=O)[C@H](C)NC(=O)[C@H](Cc1c[nH]c2ccccc12)NC(=O)[C@H](CCC(=O)O)NC(=O)[C@H](CCC(=O)O)NC(=O)[C@H](CCC(=O)O)NC(=O)[C@H](CC(C)C)NC(=O)[C@H](CO)NC(C)=O)C(=O)N[C@@H](CCC(=O)O)C(=O)N[C@H]1CSSC[C@@H](C(=O)N2CCC[C@H]2C(=O)N2CCC[C@H]2C(=O)N[C@@H](CO)C(=O)N[C@@H](CCC(=O)O)C(=O)N[C@@H](C)C(N)=O)NC(=O)[C@H](CCCNC(=N)N)NC(=O)CNC(=O)[C@H](Cc2ccc(O)cc2)NC(=O)[C@H](C(C)C)NC(=O)[C@H](CCC(=O)O)NC1=O [Peptide S22A] (Ac-SLEEEWAQIECEVYGRCPPSEA-NH2; disulfide 11-17)
> 4240 nM	> 1210 nM	> 4160 nM	> 4240 nM	>10000 nM	>10000 nM	>10000 nM	> 10000 nM	–	no detectable binding	CC[C@H](C)[C@H](NC(=O)[C@H](CCC(N)=O)NC(=O)[C@H](C)NC(=O)[C@H](C)NC(=O)[C@H](CCC(=O)O)NC(=O)[C@H](CCC(=O)O)NC(=O)[C@H](CCC(=O)O)NC(=O)[C@H](CC(C)C)NC(=O)[C@H](CO)NC(C)=O)C(=O)N[C@@H](CCC(=O)O)C(=O)N[C@H]1CSSC[C@@H](C(=O)N2CCC[C@H]2C(=O)N2CCC[C@H]2C(=O)N[C@@H](CO)C(=O)N[C@@H](CCC(=O)O)C(=O)N[C@@H](CO)C(N)=O)NC(=O)[C@H](CCCNC(=N)N)NC(=O)CNC(=O)[C@H](Cc2ccc(O)cc2)NC(=O)[C@H](C(C)C)NC(=O)[C@H](CCC(=O)O)NC1=O [Peptide W6A] (Ac-SLEEEAAQIECEVYGRCPPSES-NH2; disulfide 11-17)
